{"source": "patent US6180388A", "about": "“Enzymes and micro organisms with amidase activity which hydrolyze polyamides” (Rhone-Poulenc Fibres et Polymeres S.A., priority 1995, dated 2001)", "molecules": {"B1": {"name": "papain: known enzyme of the prior art (protein, UniProt P00784 134-345, looked up)", "Papain": "IPEYVDWRQKGAVTPVKNQGSCGSCWAFSAVVTIEGIIKIRTGNLNEYSEQELLDCDRRSYGCNGGYPWSALQLVAQYGIHYRNTYPYEGVQRYCRSREKGPYAAKTDGVRQVQPYNEGALLYSIANQPVSVVLEAAGKDFQLYRGGIFVGPCGNKVDHAVAAVGYGPNYILIKNSWGTGWGENGYIRIKRGTGNSYGVCGLYTSSFYPVKN"}}, "key": {"[1]": {"system": "Comamonas acidovorans N 12", "assay": "Enzymatic hydrolysis of PA 6.6 oligomers, activity of the wild-type microorganism", "type": "cell-based", "conditions": "28° C., 10.5 mmol/l phosphate buffer pH 7.5", "text": "2.2 ENZYMATIC HYDROLYSIS--MEASUREMENT OF ACTIVITY OF THE WILD-TYPE MICROORGANISM: […]"}, "[2]": {"conditions": "polyamide 66 labeled with carbon 14; cited from earlier work"}}}
{"molecule": "NCCCCCCNC(=O)CCCCC(=O)NCCCCCCNC(=O)CCCCC(=O)O", "note": "[ABAB]", "values": [{"measurement": "hydrolysis ABAB → BAB + A", "setting": "[1]; substrate 1.4 g/l", "result": "410 mg of BAB/h.g of dry cells"}]}
{"molecule": "trypsin [reference compound]", "values": [{"measurement": "degradation of polyamide 66", "setting": "[2]", "result": "degrade polyamide 66 slightly"}]}
{"molecule": "NCCCCCCNC(=O)CCCCC(=O)O", "note": "[AB]", "values": [{"measurement": "hydrolysis AB → A + B", "setting": "[1]; substrate 1.4 g/l", "result": "280 mg of A/h.g of dry cells"}]}
{"molecule": "O=C(O)CCCCC(=O)NCCCCCCNC(=O)CCCCC(=O)O", "note": "[ABA]", "values": [{"measurement": "hydrolysis ABA → AB + A", "setting": "[1]; substrate 2.6 g/l", "result": "215 mg of AB/h.g of dry cells"}]}
{"molecule": "B1", "values": [{"measurement": "degradation of polyamide 66", "setting": "[2]", "result": "degrade polyamide 66 slightly"}]}
